The source of these data is patent publication US11739098B2 (BRISTOL-MYERS SQUIBB COMPANY, priority 2017, dated 2023).

Holding throughout (assay type): cell-based
Assay [1] deals with T1, human TLR8 (Homo sapiens, UniProt Q9NR97).
T1 construct: host or cells: HEK-Blue cells (HEK293-derived reporter line)
T1 sequence (Q9NR97 27-1041): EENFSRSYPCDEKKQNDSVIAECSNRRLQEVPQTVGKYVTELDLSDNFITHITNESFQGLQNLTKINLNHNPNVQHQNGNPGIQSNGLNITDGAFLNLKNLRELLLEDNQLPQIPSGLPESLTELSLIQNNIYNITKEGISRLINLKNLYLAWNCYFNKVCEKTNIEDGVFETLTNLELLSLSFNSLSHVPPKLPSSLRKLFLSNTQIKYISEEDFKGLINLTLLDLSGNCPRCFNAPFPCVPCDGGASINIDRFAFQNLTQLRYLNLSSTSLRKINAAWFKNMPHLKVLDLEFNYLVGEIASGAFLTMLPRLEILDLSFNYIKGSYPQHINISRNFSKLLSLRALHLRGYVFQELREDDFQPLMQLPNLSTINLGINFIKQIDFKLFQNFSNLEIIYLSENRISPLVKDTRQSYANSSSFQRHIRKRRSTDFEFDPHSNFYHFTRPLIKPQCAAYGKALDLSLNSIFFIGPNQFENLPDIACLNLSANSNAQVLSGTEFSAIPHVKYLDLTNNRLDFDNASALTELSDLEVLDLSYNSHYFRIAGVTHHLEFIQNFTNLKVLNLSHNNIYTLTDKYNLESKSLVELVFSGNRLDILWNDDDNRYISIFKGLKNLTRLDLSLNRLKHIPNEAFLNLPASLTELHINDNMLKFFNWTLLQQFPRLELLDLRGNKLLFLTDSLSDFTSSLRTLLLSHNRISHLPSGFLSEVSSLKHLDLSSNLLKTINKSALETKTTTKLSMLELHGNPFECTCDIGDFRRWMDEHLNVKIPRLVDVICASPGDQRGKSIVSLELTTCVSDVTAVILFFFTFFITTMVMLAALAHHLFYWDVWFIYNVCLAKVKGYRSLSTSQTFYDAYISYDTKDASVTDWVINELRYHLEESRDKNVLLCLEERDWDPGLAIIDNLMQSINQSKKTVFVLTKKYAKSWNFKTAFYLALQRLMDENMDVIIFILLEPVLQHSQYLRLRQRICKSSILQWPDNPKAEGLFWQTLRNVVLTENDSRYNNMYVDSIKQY
The assay can be described thus: TLR8 inhibition reporter assay (HEK-Blue cells, SEAP reporter, R848 stimulation). The following applies: HEK-Blue cells overexpressing human TLR8, SEAP reporter, R848 15.9 μM. In short, it runs like this: (§1)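 Cells seeded per well (15000 TLR7, 20,000 TLR8, 25,000 TLR9); compound added over 0.05 nM–50 μM for 30 min at room temperature; agonist added (TLR7 gardiquimod 7.5 μM, TLR8 R848 15.9 μM, TLR9 ODN2006 5 nM); 22 h at 37 °C; SEAP measured; percent inhibition calculated.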

In assay [2] the target is T2, human TLR9 (Homo sapiens, UniProt Q9NR96).
T2 construct: host or cells: HEK-Blue cells (HEK293-derived reporter line)
T2 sequence (Q9NR96 26-1032): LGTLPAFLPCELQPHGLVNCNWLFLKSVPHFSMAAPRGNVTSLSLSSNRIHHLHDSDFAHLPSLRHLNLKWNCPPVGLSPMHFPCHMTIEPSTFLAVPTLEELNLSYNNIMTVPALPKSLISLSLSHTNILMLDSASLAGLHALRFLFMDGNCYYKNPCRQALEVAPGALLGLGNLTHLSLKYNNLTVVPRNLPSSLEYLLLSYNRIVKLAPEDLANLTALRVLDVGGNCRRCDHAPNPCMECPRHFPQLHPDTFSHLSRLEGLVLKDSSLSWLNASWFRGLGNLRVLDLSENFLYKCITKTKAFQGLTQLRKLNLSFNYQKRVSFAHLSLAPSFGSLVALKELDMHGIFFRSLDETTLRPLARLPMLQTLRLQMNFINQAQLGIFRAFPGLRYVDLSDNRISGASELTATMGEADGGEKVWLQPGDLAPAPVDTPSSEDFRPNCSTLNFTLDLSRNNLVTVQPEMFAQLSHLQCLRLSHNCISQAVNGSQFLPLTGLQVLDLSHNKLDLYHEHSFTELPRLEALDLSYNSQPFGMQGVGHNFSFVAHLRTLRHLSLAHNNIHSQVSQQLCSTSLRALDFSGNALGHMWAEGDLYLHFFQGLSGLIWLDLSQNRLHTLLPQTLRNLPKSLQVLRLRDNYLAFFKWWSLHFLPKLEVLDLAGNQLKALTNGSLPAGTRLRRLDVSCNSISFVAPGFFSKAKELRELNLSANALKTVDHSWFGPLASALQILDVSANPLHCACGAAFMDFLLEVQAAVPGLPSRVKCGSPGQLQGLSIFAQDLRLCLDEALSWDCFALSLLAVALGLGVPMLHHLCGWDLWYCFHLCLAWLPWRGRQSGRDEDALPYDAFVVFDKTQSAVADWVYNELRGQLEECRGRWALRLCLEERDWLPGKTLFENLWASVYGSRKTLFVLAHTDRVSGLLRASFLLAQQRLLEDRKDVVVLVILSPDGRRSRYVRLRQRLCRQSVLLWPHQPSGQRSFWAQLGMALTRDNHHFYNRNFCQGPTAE
In words: TLR9 inhibition reporter assay (HEK-Blue cells, SEAP reporter, ODN2006 stimulation). The following applies: HEK-Blue cells overexpressing human TLR9, SEAP reporter, ODN2006 5 nM. The method in brief:
as §1

For assay [3], the target named is T3, human TLR7 (Homo sapiens, UniProt Q9NYK1).
T3 construct: host or cells: HEK-Blue cells (HEK293-derived reporter line)
T3 sequence (Q9NYK1 27-1049): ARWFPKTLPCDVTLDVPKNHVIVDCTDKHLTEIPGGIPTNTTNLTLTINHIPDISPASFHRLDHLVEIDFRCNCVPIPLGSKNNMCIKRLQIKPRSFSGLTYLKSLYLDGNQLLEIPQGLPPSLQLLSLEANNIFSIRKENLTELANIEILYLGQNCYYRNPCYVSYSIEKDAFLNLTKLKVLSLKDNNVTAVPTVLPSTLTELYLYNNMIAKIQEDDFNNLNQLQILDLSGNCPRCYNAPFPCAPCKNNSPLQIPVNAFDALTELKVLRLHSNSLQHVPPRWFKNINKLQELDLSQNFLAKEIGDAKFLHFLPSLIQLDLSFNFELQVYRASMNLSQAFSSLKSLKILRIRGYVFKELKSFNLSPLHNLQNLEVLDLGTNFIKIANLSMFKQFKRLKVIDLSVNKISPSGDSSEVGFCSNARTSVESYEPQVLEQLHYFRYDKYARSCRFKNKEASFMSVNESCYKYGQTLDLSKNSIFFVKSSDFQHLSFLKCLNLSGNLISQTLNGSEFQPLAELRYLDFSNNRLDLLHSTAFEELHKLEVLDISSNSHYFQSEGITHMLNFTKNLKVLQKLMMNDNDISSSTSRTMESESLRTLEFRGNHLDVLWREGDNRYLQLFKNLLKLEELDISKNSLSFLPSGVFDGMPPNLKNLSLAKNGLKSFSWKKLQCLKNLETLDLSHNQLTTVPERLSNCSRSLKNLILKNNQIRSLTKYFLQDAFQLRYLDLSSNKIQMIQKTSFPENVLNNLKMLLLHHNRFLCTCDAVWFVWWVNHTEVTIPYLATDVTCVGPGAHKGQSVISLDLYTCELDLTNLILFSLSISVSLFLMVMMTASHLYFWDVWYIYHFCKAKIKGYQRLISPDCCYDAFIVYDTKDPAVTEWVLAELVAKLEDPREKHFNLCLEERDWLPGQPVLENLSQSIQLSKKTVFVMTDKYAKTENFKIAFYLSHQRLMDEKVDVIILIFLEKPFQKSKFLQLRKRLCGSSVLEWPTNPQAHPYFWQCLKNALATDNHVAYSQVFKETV
In words: TLR7 inhibition reporter assay (HEK-Blue cells, SEAP reporter, gardiquimod stimulation). The following applies: HEK-Blue cells overexpressing human TLR7, SEAP reporter, gardiquimod 7.5 μM. The method in brief: as §1

With `CC(C)c1c(-c2cnc3ncccn23)[nH]c2ccc(C3CCN(CC(=O)N(C)C)CC3)cc12` [Example 290, 2-(4-(2-(imidazo[1,2-a]pyrimidin-3-yl)-3-isopropyl-1H-indol-5-yl)piperidin-1-yl)-N,N-dimethylacetamide], the IC50 was less than 100 nM in assay [1], 1000 to 50000 nM in assay [2] and 100 to 1000 nM in assay [3].
Take `Cc1cc(-c2[nH]c3ccc(C4CCN(C(=O)CN5CC(C)(C)OC(C)(C)C5)CC4)cc3c2C(C)C)cn2nnnc12` [Example 473, 1-(4-(3-isopropyl-2-(8-methyltetrazolo[1,5-a]pyridin-6-yl)-1H-indol-5-yl)piperidin-1-yl)-2-(2,2,6,6-tetramethylmorpholino)ethan-1-one]: the IC50 is 100 to 1000 nM in assay [1], greater than 50000 nM in assay [2] and less than 100 nM in assay [3].
For the molecule `Cc1c(-c2[nH]c3ccc(C4CCNCC4)cc3c2C(C)C)ccc2nnnn12` [Example 72, 6-(3-isopropyl-5-(piperidin-4-yl)-1H-indol-2-yl)-5-methyltetrazolo[1,5-a]pyridine], the results for the IC50 in assay [1], in assay [2] and in assay [3] were less than 100 nM, 1000 to 50000 nM and 100 to 1000 nM, respectively.
The matching figures for `COc1cc(-c2[nH]c3ccc(C4CCN(CC(=O)N(C)C)CC4)cc3c2C(C)C)nn2ncnc12` [Example 283, 2-(4-(3-isopropyl-2-(8-methoxy-[1,2,4]triazolo[1,5-b]pyridazin-6-yl)-1H-indol-5-yl)piperidin-1-yl)-N,N-dimethylacetamide]: 100 to 1000 nM, 1000 to 50000 nM and less than 100 nM.
Turning to `CC(C)c1c(-c2ccnc3[nH]ncc23)[nH]c2ccc(C3CCNCC3F)cc12` (stereo not drawn) [Example 172, 4-(5-(3-fluoropiperidin-4-yl)-3-isopropyl-1H-indol-2-yl)-1H-pyrazolo[3,4-b]pyridine], the IC50 was less than 100 nM in assay [1], 1000 to 50000 nM in assay [2] and less than 100 nM in assay [3].
Consider `CC(C)c1c(-c2ccnc3[nH]ncc23)[nH]c2ccc(C3CCN(Cc4cnc(N)s4)CC3)cc12` [Example 926, 5-((4-(3-isopropyl-2-(1H-pyrazolo[3,4-b]pyridin-4-yl)-1H-indol-5-yl)piperidin-1-yl)methyl)thiazol-2-amine], for which the IC50 was less than 100 nM in assay [1], 1000 to 50000 nM in assay [2] and less than 100 nM in assay [3].
With `CC(C)c1c(-c2cc(Cl)c3ncccc3c2)[nH]c2ccc(C3CCN(C(=O)CN(C)C)CC3)cc12` [Example 512, 1-(4-(2-(8-chloroquinolin-6-yl)-3-isopropyl-1H-indol-5-yl)piperidin-1-yl)-2-(dimethylamino)ethan-1-one], the figures for the IC50 in assay [1], in assay [2] and in assay [3] were less than 100 nM, 1000 to 50000 nM and less than 100 nM, respectively.
Regarding `CNC(=O)c1cn2cc(-c3[nH]c4ccc(C5CCNCC5)cc4c3C(C)C)cc(C)c2n1` [Example 264, 6-(3-isopropyl-5-(piperidin-4-yl)-1H-indol-2-yl)-N,8-dimethylimidazo[1,2-a]pyridine-2-carboxamide], the results for the IC50 in assay [1], in assay [2] and in assay [3] were less than 100 nM, 100 to 1000 nM and less than 100 nM, respectively.
Take `CC(C)c1c(-c2ccnc3[nH]ncc23)[nH]c2ccc(C3CCN(C(=O)CS(C)(=O)=O)CC3)cc12` [Example 614, 1-(4-(3-isopropyl-2-(1H-pyrazolo[3,4-b]pyridin-4-yl)-1H-indol-5-yl)piperidin-1-yl)-2-(methylsulfonyl)ethan-1-one]: the values for the IC50 in assay [1], in assay [2] and in assay [3] were less than 100 nM, greater than 50000 nM and less than 100 nM, respectively.
`CC(C)c1c(-c2ccnc3[nH]cc(O)c23)[nH]c2ccc(C3CCNCC3)cc12` [Example 216, 4-(3-isopropyl-5-(piperidin-4-yl)-1H-indol-2-yl)-1H-pyrrolo[2,3-b]pyridin-3-ol]: the IC50 was in the range of 100 to 1000 nM in assay [1], 1000 to 50000 nM in assay [2] and 1000 to 50000 nM in assay [3].
`CCc1c(-c2ccnc3[nH]ccc23)[nH]c2ccc(C3CCN(C4CCN(C(C)C)CC4)CC3)cc12` [Example 850, 4-(3-ethyl-5-(1′-isopropyl-[1,4′-bipiperidin]-4-yl)-1H-indol-2-yl)-1H-pyrrolo[2,3-b]pyridine]: the IC50 is less than 100 nM in assay [1], 100 to 1000 nM in assay [2] and less than 100 nM in assay [3].
Consider `COc1cc(-c2[nH]c3ccc(C4CCNCC4)cc3c2C(C)C)c2ccccc2n1` [Example 105, 4-(3-isopropyl-5-(piperidin-4-yl)-1H-indol-2-yl)-2-methoxyquinoline], for which the IC50 in assay [1] was 100 to 1000 nM; in assay [2] it was 1000 to 50000 nM; in assay [3], less than 100 nM.
Consider `COc1cc(-c2[nH]c3ccc(C4CCN(C(=O)CN(C)C)CC4)cc3c2C(C)C)cc2nccn12` [Example 501, 2-(dimethylamino)-1-(4-(3-isopropyl-2-(5-methoxyimidazo[1,2-a]pyridin-7-yl)-1H-indol-5-yl)piperidin-1-yl)ethan-1-one], for which the IC50 in assay [1], in assay [2] and in assay [3] was 100 to 1000 nM each time.
